Laboratory results as given in patent US12491173B2, “Metabolism-improving agent comprising rare fatty acid” (Noster Inc., priority 2014, dated 2025).

Assays:
[1] = molecular target: T1, fusion protein of PPARα ligand binding region and GAL4 DNA binding region (Homo sapiens, UniProt Q07869); experiment: PPARα ligand activity, GAL4 fusion luciferase reporter assay in CV-1 cell; assay type: cell-based; conditions: sample 10 μM and 30 μM, vs ethanol negative control, FIG. 2
T1 construct: expressed in transfected cells; host or cells: CV-1 cell
T1 sequence (Q07869 239-466 limits assumed): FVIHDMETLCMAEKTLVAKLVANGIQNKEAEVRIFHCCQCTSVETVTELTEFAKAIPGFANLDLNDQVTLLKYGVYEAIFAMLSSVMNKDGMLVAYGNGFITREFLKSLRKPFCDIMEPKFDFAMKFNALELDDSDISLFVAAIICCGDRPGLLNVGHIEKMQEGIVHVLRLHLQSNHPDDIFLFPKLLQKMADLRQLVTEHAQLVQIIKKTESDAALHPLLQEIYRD
Procedure: (§1) To evaluate the function of hydroxylated fatty acid and oxo fatty acid and the like, PPARα, γ-activating action was measured first. The measurement was performed in reference to Nobuyuki Takahashi et al., FEBS Letters 514 (2002) p. 315-322, “Dual action of isoprenols from herbal medicines on both PPARgamma and PPARalpha in 3T3-L1 adipocytes and HepG2 hepatocytes.”, the section of Materials and Methods “Reporter plasmids and luciferase assays”. To be specific, PPARα,γ ligand activity was measured by a reporter assay that evaluates binding to a fusion protein of PPAR ligand binding region and GAL4 DNA binding region and target gene activation, based on the expression of luciferase. Specifically, a plasmid comprising a DNA encoding a fusion protein of PPARα,γ ligand binding region and GAL4 DNA binding region and a reporter plasmid wherein luciferase linked to GAL4 bound DNA sequence were introduced into CV-1 cell, a ligand described below was added to the cell, the cell was incubated and the luciferase activity was detected.
(§2) The concentration (10 μM and 30 μM) of the sample was adjusted with ethanol. Ethanol was used as a negative control, and PPARα,γ ligands GW7647 (10 nM) and troglitazone (5 μM) were used as a positive control.

[2] = molecular target: T2, fusion protein of PPARγ ligand binding region and GAL4 DNA binding region (Homo sapiens, UniProt P37231); experiment: PPARγ ligand activity, GAL4 fusion luciferase reporter assay in CV-1 cell; assay type: cell-based; conditions: sample 10 μM and 30 μM, vs ethanol negative control, FIG. 3
T2 construct: expressed in transfected cells; host or cells: CV-1 cell
T2 sequence (P37231 238-503 limits assumed): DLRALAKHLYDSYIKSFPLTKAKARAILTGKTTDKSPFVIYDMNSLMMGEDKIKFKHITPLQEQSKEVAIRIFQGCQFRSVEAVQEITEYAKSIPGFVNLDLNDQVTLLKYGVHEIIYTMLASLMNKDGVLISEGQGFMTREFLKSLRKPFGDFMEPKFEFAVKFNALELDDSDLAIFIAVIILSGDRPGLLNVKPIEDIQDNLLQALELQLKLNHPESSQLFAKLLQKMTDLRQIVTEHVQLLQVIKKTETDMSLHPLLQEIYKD
Procedure: as §1, §2

Row | Structure (SMILES) | PPARα agonist activity (relative luciferase activity) [1] | PPARγ agonist activity (relative luciferase activity) [2]
1 | CCCCCC(=O)CC/C=C\C/C=C\CCCCC(=O)O [13-OXO GLA, 13-oxo-cis-6,cis-9-octadecadienoic acid] | strong PPARα agonist activity | 
2 | CC/C=C\CC(=O)CC/C=C\CCCCCCCC(=O)O [13-OXO ALA, 13-oxo-cis-9,cis-15-octadecadienoic acid] |  | strong PPARγ agonist activity
